The record followed here is US10617715B2, “Methods of treating or preventing biofilm associated infections with free available chlorine free available chlorine water” (Sonoma Pharmaceuticals, Inc., priority 2008, dated 2020).

Positions of bridges follow the written chain, without caps; N, C: chain ends. Non-standard residues stand in square brackets, D forms with d. Residues, ends and D or L forms follow the SMILES beside them. *: point of attachment. Ileψ(thiazoline)Cys = CC[C@H](C)[C@H](N)C1=N[C@H](C(=O)*)CS1; dOrn = NCCC[C@@H](N)C(=O)O

The experiment deals with exponential phase P. aeruginosa. The experiment is described as follows: Susceptibility testing of exponential phase planktonic P. aeruginosa cells (suspension kill). The class given is cell-based, Pseudomonas aeruginosa. Particulars: bacitracin 33 U/ml, 20 sec.-20 min.

`CC[C@H](C)[C@H](N)C1=N[C@H](C(=O)N[C@@H](CC(C)C)C(=O)N[C@H](CCC(=O)O)C(=O)N[C@H](C(=O)N[C@H]2CCCCNC(=O)[C@H](CC(N)=O)NC(=O)[C@@H](CC(=O)O)NC(=O)[C@H](Cc3cnc[nH]3)NC(=O)[C@@H](Cc3ccccc3)NC(=O)[C@H]([C@@H](C)CC)NC(=O)[C@@H](CCCN)NC2=O)[C@@H](C)CC)CS1` [bacitracin] ({Ileψ(thiazoline)Cys}-L[dE]IK[dOrn]I[dF]H[dD]N; lactam 4-C): the reduction of viability result was “ineffective and did not result in reduction of viability”.
